Source: patent US10507216B2, “Method for olfactory improvement with saccharide” (priority 2017, dated 2019)

What was measured:
[1] = system: rat olfactory neuroepithelial cells (ONCs); assay: Western blot analysis of rat ONCs (βIII tubulin, OMP, Golf, ADCY3 relative to GAPDH); type: cell-based; details: day 9
Procedure: Olfactory neuroepithelia of rats were isolated from E17 embryos of wistar rats and 40 embryos per trial were used. After isolation, olfactory neuroepithelia were digested in Hanks' balanced salt solution (Roche Molecular Biochemicals, Indianapolis, Ind., USA) containing 0.125% Trypsin/EDTA for 30 minutes at 37° C. The cell suspension was then filtered through a 70 μm cell strainer to eliminate cell aggregates and debris, and adjusted to 24×10^4 cells/mL (equivalent to 5×10^4 cells/cm^2). Finally, a 2 mL cell suspension was added to six-wells coated with 0.85 μg/cm^2 poly-L-lysine (PLL). ONCs were cultured at 37° C. in a humidified 5% CO2 and 95% air atmosphere. Cell morphology was observed under an inverse phase contrast microscope (TS-100, Nikon, Tokyo, Japan) and scanning electron microscope (Hitachi S-4800).
ONC medium comprised DMEM/F12 (Invitrogen), 20 ng/mL bFGF, 20 ng/mL EGF, 2% B27 and 1% penicillin/streptomycin. To prepare the chitosan-containing medium for administration groups, chitosan (C-3646, Sigma, St. Louis, Mo.) was mixed with culture medium (0.1 mg/mL), and adjusted to pH 7.2 with NaOH. Particularly, chitosan solution was prepared by dissolving chitosan in 0.5 M acetic acid.
ONC lysates were obtained from individual culture wells using a RIPA lysis buffer containing protease inhibitor cocktail tablets (Roche Diagnostics GmbH). These samples were then denatured and separated by 12% SDS-PAGE gels, and blotted onto PVDF membranes (Millipore). After blocking in a CIS blocking buffer at room temperature for 60 seconds, the membranes were probed with various primary antibodies at 4° C. overnight. Membranes were incubated with horseradish peroxidase-conjugated secondary antibodies for 1.5 hours, and finally visualized using enhanced chemiluminescence (ECL; Millipore, Billerica, Mass.). After detachment of previous primary antibodies, the membranes were also probed with GAPDH antibodies, which served as an internal control. Images of western blotting were acquired by UVP BioSpectrum 810, and analyzed by Vision Works LS software (UVP, California, USA).
All the measurements were presented as mean±SD. Statistical significance was computed with one-way ANOVA followed by LSD test with p<0.05. All statistical analyses were conducted using Sigma plot v12.5.

[2] = system: human olfactory neuroepithelial cells (ONCs); assay: Western blot analysis of human ONCs (OMP, Golf, βIII tubulin); type: cell-based; details: 0.1 mg/ml monosaccharide monomer, day 9
Procedure: Human olfactory neuroepithelia were harvested from adult olfactory neuroepithelium during endoscopic sinus surgery. Biopsy specimens were transferred into Hank's balanced salt solution (HBSS), minced finely, and then digested with 0.125% Trypsin/EDTA for 30 minutes at 37° C. After digestion, the pellet was collected by centrifuge and resuspended in the iscove's modified dulbecco's media (IMDM; Invitrogen, Calif., USA) with 10% fetal bovine serum and 1% penicillin/streptomycin Finally, they were seeded to six-wells coated with laminin-co-fibronectin for 21 days, incubated in a humidified atmosphere containing 5% CO2 and 95% air. After 21 days, the medium were changed with induction medium. This induction medium is Dulbecco's Modified Eagle Medium: Nutrient Mixture F-12 (DMEM/F12) (Invitrogen, Calif., USA) supplemented with 2% B-27 serum-free supplement. To prepare the chitosan-containing medium for administration groups, chitosan (C-3646, Sigma-Aldrich, St. Louis, Mo.) was mixed with induction medium (0.1 mg/ml), and adjusted to pH 7.2 with NaOH.
ONC lysates were obtained from individual culture wells using a RIPA lysis buffer containing protease inhibitor cocktail tablets (Roche Diagnostics GmbH). […] Images of western blotting were acquired by UVP BioSpectrum 810, and analyzed by Vision Works LS software (UVP, California, USA). […]

[3] = 0.1 mg/ml monosaccharide monomer

| Compound | expression levels of OMP and Golf [1, 3] | expression levels of OMP [2] | expression levels of OMP and Golf ([1]; 0.1 mg/ml proteoglycan or glycosaminoglycan) |
| --- | --- | --- | --- |
| CC(=O)N[C@H]1C(O)O[C@H](CO)[C@H](O)[C@@H]1O (stereo partly shown) [GalNAc, N-acetylgalactosamine] | promoted the maturation of ORNs | induced positive effects on human ONCs | – |
| N[C@H]1C(O)O[C@H](CO)[C@@H](O)[C@@H]1O (stereo partly shown) [GlcN, glucosamine] | promoted the maturation of ORNs | – | – |
| CC(=O)N[C@H]1C(O)O[C@H](CO)[C@@H](O)[C@@H]1O (stereo partly shown) [GlcNAc, N-acetylglucosamine] | promoted the maturation of ORNs | – | – |
| CC(=O)N[C@@H]1C(O)O[C@H](CO)[C@@H](O)[C@@H]1O (stereo partly drawn) [ManNAc, N-acetyl-D-mannosamine] | promoted the maturation of ORNs | induced positive effects on human ONCs | – |
| heparan sulfate proteoglycan [HSPG] | – | – | promoted expression of mature and functional ORNs |
